Consider nine molecules from patent US20120108632A1, “[…] INHIBITORS FOR OCULAR HYPERTENSION CONTROL AND THE TREATMENT OF GLAUCOMA” (ALCON RESEARCH, LTD., priority 2006, published 2012).

Data set [1] deals with GGTase (Homo sapiens, UniProt P53609). As to conditions: cited from earlier work.
Data set [2] has as its system lactate dehydrogenase (LDH) release into culture media. Briefly: CytoTox-ONE Homogenous Membrane Integrity Assay (LDH release). It counts as cell-based. The conditions noted are these: conclusion from LDH release; FIG. 4. Background: LDH leaks from cells whose membrane has failed.
Data set [3] relates to PAI-1 gene expression in TM cell lines. The experiment in a line: TGFβ2-induced PAI-1 gene expression by QRT-PCR in TM cells. In kind it is cell-based, human. As to conditions: TM cell lines treated with TGFβ2 and inhibitor, versus TGFβ2 alone; FIG. 3. The text has this: (§1) Total RNA was isolated from TM cells using Qiagen RNeasy 96 system according to the manufacturer's instructions (Qiagen).
Differential expression of CTGF and PAI-1 were verified by quantitative real-time RT-PCR (QRT-PCR) using an ABI Prism® 7700 Sequence Detection System (Applied Biosystems) essentially as previously described (Shepard et al., IOVS, 2001, Vol. 42:3173). Primers for CTGF amplification were designed using Primer Express software (Applied Biosystems) to anneal to adjacent exons of Genbank accession #NM_001901.1 ([…] (SEQ ID NO: 1), nts 1667-1689 and […] (SEQ ID NO: 2), nts 1723-1742, with probe sequence 6FAM-[…]-TAMRA (SEQ ID NO: 3)) and generate a 76-bp amplicon. Primers for PAI-1 amplification were purchased from ABI (Hs00167155 ml) and correspond to Genbank accession #NM_000602.1. […] Quantification of relative RNA concentrations was done using the delta delta Ct method as described in PE Biosystems User Bulletin #2. Levels of amplified products were expressed as mean±SEM of quadruplicate QRT-PCR assays. […]
(§2) In this example, the effectiveness of GGTase and FTase inhibitors on CTGF gene expression in cultured human trabecular meshwork cells was studied. In this experiment, the CTGF/18S cDNA levels were measured and compared by QRT-PCR according to the protocol of Example 1.

Data set [4] has as its system CTGF gene expression in cultured human trabecular meshwork cells. The experiment in a line: Basal and TGFβ2-induced CTGF gene expression by QRT-PCR in TM cells. In kind it is cell-based. As to conditions: for measured CTGF levels (CTGF/18S cDNA) compared to TGFβ2-treated cells: TM cells treated with TGFβ2 and inhibitor, versus TGFβ2 alone, FIGS. 1 and 2.
Text: as §1
Differential expression of CTGF and PAI-1 were verified by quantitative real-time RT-PCR (QRT-PCR) using an ABI Prism® 7700 Sequence Detection System (Applied Biosystems) essentially as previously described (Shepard et al., IOVS, 2001, Vol. 42:3173). Primers for CTGF amplification were designed using Primer Express software (Applied Biosystems) to anneal to adjacent exons of Genbank accession #NM_001901.1 ([…] (SEQ ID NO: 1), nts 1667-1689 and […] (SEQ ID NO: 2), nts 1723-1742, with probe sequence 6FAM-[…]-TAMRA (SEQ ID NO: 3)) and generate a 76-bp amplicon. Primers for PAI-1 amplification were purchased from ABI (Hs00167155 ml) and correspond to Genbank accession #NM_000602.1. Amplification of CTGF or PAI-1 was normalized to 18S ribosomal RNA expression using primers designed to the 18S rRNA gene (GenBank accession #X03205 […] (SEQ ID NO: 4), nts 1680-1700 and […] (SEQ ID NO: 5), nts 1730-1749, with probe sequence 6FAM-[…]-MGBNFQ (SEQ ID NO: 6)) which generates a 69-bp amplicon. CTGF or PAI-1 QRT-PCR was performed in multiplex with 18S primer/probe sets in a 50 ul final volume consisting of 40 nM 18S or 900 nM CTGF or PAI-1 primers; 100 nM 18S probe or 100 nM CTGF or 250 nM PAI-1 probe; 5 ul RNA; 1× Multiscribe and RNase Inhibitor Mix (ABI); and 1× TaqMan® Universal Mix (ABI). Thermal cycling conditions consisted of 48° C., 30 min, 95° C. 10 min followed by 40 cycles at 95° C., 15 sec, 60° C., 1 min. […] Quantification of relative RNA concentrations was done using the delta delta Ct method as described in PE Biosystems User Bulletin #2. Levels of amplified products were expressed as mean±SEM of quadruplicate QRT-PCR assays. […]
as §2

Data set [5] concerns the target Ftase (Homo sapiens, UniProt P49356). The conditions noted are these: cited from earlier work.

In general, IC50 refers to the concentration at which inhibition is half-maximal. As for `CSCC[C@H](NC(=O)c1ccc(NC[C@@H](N)CS)cc1-c1ccccc1)C(=O)O` [FTI-276], the IC50 in data set [1] was 50 nM.

Turning to `COC(=O)[C@H](CCSC)NC(=O)c1ccc(NC[C@@H](N)CS)cc1-c1ccccc1` [FTI-277], the cytotoxicity entry in data set [2] was “relatively low cytotoxicity”. In data set [3], the “measured PAI-1 compared to TGFβ2-treated cells” value was “able to produce drops in measured PAI-1”. Besides, the “measured CTGF levels (CTGF/18S cDNA) compared to TGFβ2-treated cells” value in data set [4] is listed as “produces a drop in measured CTGF levels”. Further, the IC50 in data set [5] was 100 nM.

As for `CSCC[C@H](NC(=O)c1ccc(NC(=O)[C@@H](N)CS)cc1)C(=O)O` [Ftase Inhibitor II], the IC50 in data set [5] is 50 nM.

Take `CSCC[C@H](NC(=O)[C@H](Cc1ccccc1)NC[C@@H](NC[C@@H](N)CS)C(C)C)C(=O)O` [Ftase Inhibitor I]: the IC50 in data set [1] is 790 nM; in data set [5], 21 nM.

As to `COC(=O)[C@H](CC(C)C)NC(=O)c1ccc(NC[C@@H](N)CS)cc1-c1ccccc1` [GGTI-286], in data set [1], the IC50 was 2000 nM.

Turning to `CC(C)C[C@H](NC(=O)c1ccc(NC[C@@H](N)CS)cc1-c1cccc2ccccc12)C(=O)O` [GGTI-297], the IC50 was 50 nM in data set [1] and 200 nM in data set [5].

As for `COC(=O)[C@H](CC(C)C)NC(=O)c1ccc(NC[C@@H](N)CS)cc1-c1cccc2ccccc12` [GGTI-298], in data set [1], the IC50 is 3000 nM.

Regarding `CC(C)C[C@H](NC(=O)c1ccc(NCc2cnc[nH]2)cc1-c1cccc2ccccc12)C(=O)O` [GGTI-2133], in data set [2], the cytotoxicity result was “relatively low cytotoxicity”. The “measured PAI-1 compared to TGFβ2-treated cells” value in data set [3] is reported as “able to produce drops in measured PAI-1”. Besides, the IC50 in data set [1] is 38 nM; in data set [5], 5400 nM. Moreover, the “measured CTGF levels (CTGF/18S cDNA) compared to vehicle alone” value in data set [4] (TM cell cultures treated with TGFβ2 and inhibitor, versus vehicle alone, FIG. 1) was “lower than with vehicle alone”. The “measured CTGF levels (CTGF/18S cDNA) compared to TGFβ2-treated cells” value in data set [4] is “dramatically reduced CTGF levels”.

As for `COC(=O)[C@H](CC(C)C)NC(=O)c1ccc(NCc2cnc[nH]2)cc1-c1cccc2ccccc12` [GGTI-2147], the IC50 in data set [1] was 500 nM; in data set [5], 30000 nM.
